Key:
[1] = system: actual human skin; conditions: mixture of peptide and caffeine vs caffeine alone, measured over time; FIG. 2
Experimental: A mixture of the skin-permeable peptide of SEQ ID NO: 8 and caffeine or caffeine alone was treated to evaluate skin permeability thereof.
In detail, Franz diffusion cell assay was performed using actual human skin as in Example 1, and the permeation amount of caffeine was measured by HPLC and then compared (FIG. 2).

[2] = system: human skin; conditions: mixed with peptide vs treated alone; FIG. 3
Experimental: The FITC conjugation method was performed in accordance with the manufacturer's instructions by purchasing an FITC conjugation kit (Lightning-Link® (ab188285)) from Abcam (Cambridge, MA, USA).

[3] = system: human skin; conditions: mixture of peptide and fluorescein liposome (180 nm) vs liposome alone, 3 hours; FIG. 4
Experimental: Aqueous solutions were then obtained through Franz diffusion cell assay, and FITC fluorescence values were analyzed using a fluorescence microplate reader (SpectraMax i3, Molecular Devices, USA).
Fluorescein was liposomized using a liposome kit purchased from Sigma Aldrich (MO, USA) and liposomizing Fluorescein was used as liposome for the skin permeability tests.

[4] = system: HDF cells; experiment: Collagen production in HDF cells (Collagen type I ELISA); assay type: cell-based; conditions: mixture of peptide and KTTKS peptide vs KTTKS alone, 48 hours; FIG. 5
Experimental: In order to examine the efficacy improvement of the bioactive material due to the skin permeation effect of the active ingredient by the peptide of SEQ ID NO: 8, HDF cells were treated with a mixture of KTTKS peptide, which is a bioactive material, and the peptide of SEQ ID NO: 8, or treated with KTTKS peptide alone, and collagen production amounts were analyzed using an ELISA assay.
HDF cells used in this experiment were purchased from Thermo Fisher Scientific (Waltham, MA, USA). HDF cells were cultured in Dulbecco's Modified Eagle's Medium (DMEM) supplemented with 10% fetal bovine serum (FBS), 100 U/mL penicillin, and 100 μg/mL streptomycin (Gipco, Life Technologies, Grand Island, NY, USA) and cultured in a 5% CO2 incubator at 37° C.
HDF cells at a density of 2×10^5 cells/mL were dispensed in a volume of 250 μL in 48 wells and allowed to stabilize for 24 hours. Samples were treated at different concentrations and cultured in a CO2 incubator for 48 hours, and then each culture was obtained. […] 100 μL of TMB substrate was dispensed therein, left in the dark for 30 minutes, and treated with 50 μL of a stop solution, and then absorbance was measured at 450 nm with a microspectrophotometer (Molecular Device, Sunnyvale, CA, USA).

[5] = system: real human skin; conditions: mixture of peptide and lidocaine, 2 mM sample, 6 hours; compared with known peptide (TAT) and with lidocaine alone; FIG. 1
Experimental: A mixture of skin-permeable peptides consisting of any one amino acid sequence selected from SEQ ID NO: 5 to SEQ ID NO: 8 and derivatives thereof of SEQ ID NO: 1 to SEQ ID NO: 4, or the known peptide and lidocaine, or lidocaine alone was treated to evaluate skin permeability.
In detail, to evaluate the skin permeability, real human skin was used and the skin permeability was measured by a Franz diffusion cell assay, and the permeation amount of lidocaine was measured by HPLC and then compared.
Human skin used in this experiment was purchased from UMC Science Co., Ltd., Korea, and phosphate-buffered saline (PBS, Gibco, USA) was purchased from Sigma-Aldrich. […]
The temperature of the receptor fluid was maintained constant at 32° C.±1° C., and the humidity was maintained at 30-70%, followed by stabilization for 30 minutes. […] 6 hours later, sampling was performed through a sampling arm of the receptor, and for quantification, STD (100 μM standard sample) and the sample were analyzed through HPLC, and the permeability was expressed as a percentage (%) as compared to STD.

## H-RKLFRKILKYLR-OH [SEQ ID NO: 8, H2N-[Arg-Lys-Leu-Phe-Arg-Lys-Ile-Leu-Lys-Tyr-Leu-Arg]-CO2H]
[1]
  skin permeation amount of caffeine: significantly superior
[2]
  skin permeability effect of 3 kDa FITC-conjugated collagen: strong skin permeability effects
  skin permeability effect of 30 kDa FITC-conjugated collagen: strong skin permeability effects
  skin permeability effect of 300 kDa FITC-conjugated collagen: strong skin permeability effects
  skin permeability effect of 800 kDa hyaluronic acid (HA): strong skin permeability effects
[3]
  skin permeation effect of the liposome: remarkably increased
[4]
  production amount of collagen: significantly increased
[5]
  skin permeation amount of lidocaine: highest effect
